Reference: patent US10736974B2, “Scaffolds and multifunctional intermediates for imaging PSMA and cancer therapy” (THE JOHNS HOPKINS UNIVERSITY, priority 2014, dated 2020)
Like-named read-outs stand apart in the source and are kept apart here.

Tests used:
PSMA [1] = target: T1, PSMA (Homo sapiens (Human), UniProt Q04609); assay: NAALADase assay: PSMA inhibitory activity, fluorescence-based Amplex Red Glutamic Acid assay, lysates of LNCaP cell extracts; assay type: biochemical
Method: Briefly, lysates of LNCaP cell extracts (25 μL) were incubated with the inhibitor (12.5 μL) in the presence of 4 μM N-acetylaspartylglutamate (NAAG) (12.5 μL) for 120 min. The amount of the glutamate released by NAAG hydrolysis was measured by incubating with a working solution (50 μL) of the Amplex Red Glutamic Acid Kit for 60 min. […] Assays were performed in triplicate. Data analysis was performed using GraphPad Prism version 4.00 for Windows (GraphPad Software, San Diego, Calif.).

PSMA [2] = target: T1, PSMA; details: cited from earlier work; for blood pool and salivary / lacrimal gland uptake in clinical PET imaging: patients
PSMA [3] = target: T1, PSMA; details: from Chen, 2008; read-out: Ki, PSMA inhibition; cited from earlier work
[4] = Table 3, Cheng-Prusoff conversion, read-out: Ki

T1 sequence (Q04609 whole entry): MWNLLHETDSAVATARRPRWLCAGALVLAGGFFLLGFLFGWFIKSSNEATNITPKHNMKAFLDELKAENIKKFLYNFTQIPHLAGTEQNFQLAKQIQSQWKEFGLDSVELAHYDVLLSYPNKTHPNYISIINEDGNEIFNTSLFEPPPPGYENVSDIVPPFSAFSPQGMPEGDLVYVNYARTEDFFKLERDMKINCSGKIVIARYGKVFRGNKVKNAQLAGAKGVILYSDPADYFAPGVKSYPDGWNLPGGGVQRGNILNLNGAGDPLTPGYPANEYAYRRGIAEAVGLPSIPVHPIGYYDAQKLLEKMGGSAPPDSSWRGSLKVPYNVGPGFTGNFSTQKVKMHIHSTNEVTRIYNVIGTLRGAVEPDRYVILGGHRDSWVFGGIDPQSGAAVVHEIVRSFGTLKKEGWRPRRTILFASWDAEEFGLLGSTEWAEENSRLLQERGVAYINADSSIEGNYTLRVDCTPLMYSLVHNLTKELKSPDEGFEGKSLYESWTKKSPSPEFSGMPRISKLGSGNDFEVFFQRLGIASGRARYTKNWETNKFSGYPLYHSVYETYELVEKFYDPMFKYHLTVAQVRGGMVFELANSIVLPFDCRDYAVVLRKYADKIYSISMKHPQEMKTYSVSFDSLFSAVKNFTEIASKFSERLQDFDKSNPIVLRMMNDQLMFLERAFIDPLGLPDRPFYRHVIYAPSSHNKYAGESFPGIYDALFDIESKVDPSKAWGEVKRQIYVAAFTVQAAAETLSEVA

SMILES	IC50 (PSMA [1]; Table 3) [nM]	Ki (PSMA [1]; [4]) [nM]	also measured
O=C(O)CC[C@H](NC(=O)O[C@@H](CCCCNC(=O)c1ccc(I)cc1)C(=O)O)C(=O)O [XY-26]	4.3		Ki (PSMA [1]; read-out: Ki, PSMA inhibition): 0.9 nM
O=C(O)CC[C@H](NC(=O)N[C@@H](CSCc1ccc(I)cc1)C(=O)O)C(=O)O [DCIBC, reference compound]			Ki (PSMA [1]; Table 4, read-out: Ki): 0.03 nM
O=CO[C@@H](CNC(=O)N[C@@H](CCC(=O)O)C(=O)O)NC(=O)CCCNC(=O)c1ccc(I)cc1F [XY-44]			Ki (PSMA [1]; Table 4, read-out: Ki): 0.017 nM; Ki (PSMA [1]; read-out: Ki, PSMA inhibition): 0.02 nM
O=C(O)CC[C@H](NC(=O)N[C@@H](CCCCNC(=O)Nc1ccc([123I])cc1)C(=O)O)C(=O)O [[^124I]-MIP-1095]			blood pool and salivary / lacrimal gland uptake in clinical PET imaging (PSMA [2]): rapid clearance from the blood but high uptake in salivary and lacrimal glands
O=CO[C@@H](CNC(=O)N[C@@H](CCC(=O)O)C(=O)O)NC(=O)CCCNC(=O)c1ccc(F)cc1 [YC-I-26, reference compound]			Ki (PSMA [1]; Table 4, read-out: Ki): 0.3 nM; Ki (PSMA [3]): 0.25 nM
O=C(O)CC[C@H](NC(=O)O[C@@H](CCNC(=O)c1ccc(F)cc1)C(=O)O)C(=O)O [XY-16]	4500	900	
O=C(O)CC[C@H](NC(=O)N[C@@H](CSCc1ccc([18F])cc1)C(=O)O)C(=O)O [[^18F]DCFBC]			blood pool and salivary / lacrimal gland uptake in clinical PET imaging (PSMA [2]): persistent blood pool occupancy but low salivary gland uptake
O=C(O)CC[C@H](NC(=O)O[C@@H](CCCCNC(=O)c1ccc(-c2ccccc2)cc1F)C(=O)O)C(=O)O [XY-42]	86	13	
Cc1cc(Br)ccc1C(=O)NCCCC(=O)N[C@H](CNC(=O)N[C@@H](CCC(=O)O)C(=O)O)OC=O [XY-58]			Ki (PSMA [1]; Table 4, read-out: Ki): 0.036 nM; Ki (PSMA [1]; read-out: Ki, PSMA inhibition): 0.04 nM
O=C(O)CC[C@H](NC(=O)O[C@@H](CCCCNC(=O)c1ccc(SCc2ccc(F)cc2)cc1)C(=O)O)C(=O)O [XY-39]	46	9.3	
O=CO[C@@H](CNC(=O)N[C@@H](CCC(=O)O)C(=O)O)NC(=O)CCCNC(=O)c1ccc(C2=CCCCC2)cc1F [XY-45]			Ki (PSMA [1]; Table 4, read-out: Ki): 0.1 nM
O=C(O)CC[C@H](NC(=O)O[C@@H](CCCCNC(=O)c1ccc(I)cc1OCCCCNC(=O)c1ccc(I)cc1)C(=O)O)C(=O)O [XY-50]	3800	770	
O=C(O)CC[C@H](NC(=O)O[C@@H](CCCCNC(=O)c1ccc2ccccc2c1)C(=O)O)C(=O)O [XY-21]	60	12	
O=C(O)CC[C@H](NC(=O)N[C@@H](CCCCNC(=O)Nc1ccc([131I])cc1)C(=O)O)C(=O)O [[^131I]-MIP-1095]			dose-limiting organs from absorbed dose estimates (PSMA [2]; Zechmann, 2014): salivary glands, lower large intestinal wall, and kidneys
O=C(O)CC[C@H](NC(=O)O[C@@H](CCCCNC(=O)c1ccc(SCCF)cc1)C(=O)O)C(=O)O [XY-38]	41	8.3	
O=C(O)CC[C@H](NC(=O)O[C@H](CCNC(=O)c1ccc(F)cc1)C(=O)O)C(=O)O [XY-17]	4900	980	
O=CO[C@@H](CNC(=O)N[C@@H](CCC(=O)O)C(=O)O)NC(=O)CCCNC(=O)c1ccc(Br)cc1 [XY-59]			Ki (PSMA [1]; Table 4, read-out: Ki): 0.02 nM
O=C(O)CC[C@H](NC(=O)O[C@@H](CCCCNC(=O)c1ccc(-c2ccc(OCCF)cc2)cc1)C(=O)O)C(=O)O [XY-24]	120	22	
COc1ccc(-c2ccc(C(=O)NCCCC[C@H](OC(=O)N[C@@H](CCC(=O)O)C(=O)O)C(=O)O)cc2)cc1 [XY-23]	30	6	
COc1ccc2cc(C(=O)NCCCC[C@H](OC(=O)N[C@@H](CCC(=O)O)C(=O)O)C(=O)O)ccc2c1 [XY-22]	104	20	

Second part, led by results:

IC50 (PSMA [1]; Table 3) [nM]	Ki (PSMA [1]; [4]) [nM]	SMILES	also measured
24	4.8	CSc1ccc(C(=O)NCCCC[C@H](OC(=O)N[C@@H](CCC(=O)O)C(=O)O)C(=O)O)cc1 [XY-28]	
43000	9.7	O=C(O)CC[C@H](NC(=O)NC[C@H](NC(=O)c1ccc(F)cc1)C(=O)O)C(=O)O [XY-34]	
100	21	COc1ccc(C(=O)NCCCC[C@H](OC(=O)N[C@@H](CCC(=O)O)C(=O)O)C(=O)O)cc1 [XY-27]	
2	0.4	O=C(O)CC[C@H](NC(=O)NC[C@@H](NC(=O)CCCNC(=O)c1ccc(-c2ccccc2)cc1F)C(=O)O)C(=O)O [XY-46]	
192	38	O=C(O)CC[C@H](NC(=O)O[C@@H](CCCCNC(=O)c1ccc(Cl)cc1F)C(=O)O)C(=O)O [XY-49]	
1.3	0.26	CSc1ccc(C(=O)NCCCC(=O)N[C@H](CNC(=O)N[C@@H](CCC(=O)O)C(=O)O)C(=O)O)cc1 [XY-40]	
1300	270	CNC(=O)c1ccc(C(=O)NCCCC[C@H](OC(=O)N[C@@H](CCC(=O)O)C(=O)O)C(=O)O)cc1 [XY-30]	
8000	1600	O=C(O)CC[C@H](NC(=O)NC[C@H](NC(=O)CCCNC(=O)c1ccc(F)cc1)C(=O)O)C(=O)O [XY-35]	
1.6	0.32	O=C(O)CC[C@H](NC(=O)O[C@@H](CCCCNC(=O)c1ccc(I)cc1F)C(=O)O)C(=O)O [XY-43]	
210	42	O=C(O)CC[C@H](NC(=O)O[C@@H](CCCCNC(=O)c1ccc(F)cc1)C(=O)O)C(=O)O [XY-20, (S)-2-(((((S)-1-carboxy-5-(4-fluorobenzamido)pentyl)oxy)carbonyl)amino)pentanedioic acid]	reduction in binding affinity compared to 9 (YC-I-26) (PSMA [1]): more than 150 fold
660	130	CC(=O)Nc1ccc(C(=O)NCCCC[C@H](OC(=O)N[C@@H](CCC(=O)O)C(=O)O)C(=O)O)cc1 [XY-29]	
